Results: patent US20030118985A1, “Mouse monoclonal antibody (5-21-3) to human immunodeficiency virus gp41 protein” (priority 1997, published 2003)

Columns and labels:
[1] = test system: monoclonal antibody 5-21-3; assay: Immuno-dot blot of synthetic peptides with 5-21-3; assay type: binding, mouse; conditions: 25 ug/ml 5-21-3; mild washing procedures
Excerpt: The western Blot procedure described in Example 1 was employed for development of immuno-dot blots using synthetic peptides, except that synthetic peptides were fixed to nitrocellulose by direct application using Drummond lambda pipettes, and air dried prior to blocking with 20% fetal calf serum in PBS (pH 7.4).

[2] = test system: monoclonal antibody 5-21-3; assay: Immunoprecipitation of [125I] synthetic peptides by 5-21-3; assay type: binding, mouse; conditions: for SPECIFIC PRECIPITATION (CPM) by 5-21-3 / x-fold increase of specific over non-specific precipitation, 5-21-3: 5-21-3 10 μg/0.2 ml, second antibody precipitation; for SPECIFIC PRECIPITATION (CPM) by 5-21-3: PBS, 0.1% Triton X-100, 1.0% BSA, carrier serum; for x-fold increase of specific over non-specific precipitation, 5-21-3: vs normal mouse IgG
Experimental: (§1) Synthetic peptides were radiolabeled with ^125I (Amersham) by the chloramine T method (N. M. Hunter, “Radioimmunoassay” in D. M. Weir, Ed., Handbook of Experimental Immunology, [Blackwell Scientific Publications, 1973]). Generally, 2-6 ul of 100 mCi/ml ^125I were added to 10-50 ug of peptide in PBS, pH 7.4. Approximately 10 ug of freshly prepared (1 mg/ml in PBS) chloramine T were added to the mixture maintained at 4° C. After 5 min., [^125I]peptide was separated from free ^125I by passage of the reaction mixture through a 3 ml (bed volume) column of Biogel P-6 or P-2, as required. Fractions (200 ul each) containing [^125I]peptide were pooled and diluted into PBS containing 20% fetal calf serum. Rough estimations of ^125I cpm bound to peptide were made by acid precipitation. An aliquot of labeled peptide was diluted into 1 ml of ice cold 50% trichloroacetic acid (TCA) overlaying a 0.45 um filter (made of mixed cellulose esters) set on a scintered glass filter connected to a vacuum apparatus. Precipitated protein was fixed onto the filter by application of vacuum, and filters were washed with ice-cold 50% TCA. Background cpm adhering non-specifically to the filter were estimated by repeating the procedure using a non-precipitating buffer. Amounts of peptide, ^125I, chloramine T, and composition of column eluting buffer were subject to change depending on conditions required to maintain solubility of each peptide.
(§2) Synthetic peptides radiolabeled with ^125I were diluted into PBS (pH 7.4) containing 0.1% Triton X-100 (or other detergents where indicated) and 1.0% BSA, to yield approximately 2.5-5×10^5 acid-precipitable cpm per 0.1 ml. Purified monoclonal IgG 5-21-3 and 10-15-63 were employed in the assay. Monoclonal antibodies were diluted into PBS containing 0.1% Triton X-100 (or other detergents where indicated), 1.0% BSA, and 2% normal mouse serum as a carrier immunoglobulin. Immune rabbit serum (anti-P58-130) was diluted appropriately into the same buffer except that normal rabbit serum (2%) was substituted for normal mouse serum as the carrier immunoglobulin. A reaction mixture comprising 0.1 ml [^125I] peptide (5×10^5 cpm/0.1 ml) and 0.1 ml diluted antibody was incubated 1 hr at 40° C., followed by addition of 0.1 ml of a precipitating antibody, either goat anti-mouse IgG, or goat anti-rabbit IgG, corresponding to the primary antibody. The reaction mixture was incubated 1 hr at 40° C. and then overnight at 4° C. […] Precipitation assays employing Protein A-Sepharose as the precipitating reagent were performed in a similar manner, except that normal sera were omitted from the reaction mixtures.

[3] = test system: monoclonal antibody 10-15-63; assay: Immunoprecipitation of [125I] synthetic peptides by 10-15-63; assay type: binding, mouse; conditions: for SPECIFIC PRECIPITATION (CPM) by 10-15-63 / x-fold increase of specific over non-specific precipitation, 10-15-63: 10-15-63 10 μg/0.2 ml, second antibody precipitation; for SPECIFIC PRECIPITATION (CPM) by 10-15-63: PBS, 0.1% Triton X-100, 1.0% BSA, carrier serum; for x-fold increase of specific over non-specific precipitation, 10-15-63: vs normal mouse IgG
Experimental: as §1, §2

[4] = test system: Rabbit (R) anti-P58-130 serum; assay: Immunoprecipitation of [125I] synthetic peptides by rabbit anti-P58-130 serum; assay type: binding; conditions: for SPECIFIC PRECIPITATION (CPM) by RαP58-130 / x-fold increase of specific over non-specific precipitation, RαP58-130: rabbit anti-P58-130 serum 20 ul/0.2 ml, second antibody precipitation; for x-fold increase of specific over non-specific precipitation, RαP58-130: vs normal rabbit serum
Experimental: as §1, §2

[5] = test system: binding of antibody 5-21-3 to rp41; assay: Binding inhibition assay: peptides inhibit binding of 5-21-3 to rp41; design: species or system HIV I; conditions: for Molar Ratio at 50% inhibition of 5-21-3 binding: mean of two experiments, 0.4 pmol 5-21-3 IgG per well
Experimental: Additional evidence for the conformationl nature of the 5-21-3 epitope was obtained using binding inhibition studies, in which synthetic peptides were ranked for their ability to inhibit binding of 5-21-3 to rp41. First, the Fab dimer of an anti-gp41 monoclonal antibody was prepared by conventional methods (Goding et al., supra). Then 100 ul of a 1 mg/ml solution of the Fab dimer in bicarbonate buffer (pH 9.6) was coated onto Immulon II microtiter plates for 1 hr at 37° C. After washing with PBS containing 0.05% Tween 20, the plates were overcoated with 200 ul of 1.0% ovalbumin in bicarbonate buffer (pH 9.6) for 1 hr at 30° C. After washing, 100 ul of rp41 enriched E. coli lysate (as described in Example 3), diluted appropriately in PBS containing 0.05% Tween 20, were allowed to bind to the Fab dimer for 2 hr at 30° C. The plates were washed and stored at 4° C.
Intact monoclonal antibody 5-21-3 IgG (purified from tissue culture fluid supporting growth of the cloned cell line 5-21-3) was titrated against the bound rp41 on the plate, and an antibody concentration was selected which yielded an A492 value of 2.0-3.0. Usually, 0.4 pmol (0.06 ug) of 5-21-3 IgG per microtiter well was employed in these assays. Stock solutions of 5-21-3 IgG were prepared in PBS containing 0.1% Triton X-100 and 0.1% SDS. Dilutions of synthetic peptides were made in the same buffer (SDS was included in these experiments to keep peptides soluble at high concentrations).
The binding inhibition assay was performed by combining 0.15 ml of 1.2 ug/ml 5-21-3 antibody stock solution with 0.15 ml of peptide at a selected peptide concentration, and incubating the reaction mixture 1 hr at room temp. Then 0.1 ml aliquots of each reaction mixture were added to each of two wells in the microtiter tray. After a 1 hr incubation at room temp., the plates were washed, and HRPO conjugated Goat anti-mouse IgG Fc was added for 1 hr at room temp. The plates were washed, and addition of OPD for color development identified the relative amounts of 5-21-3 bound to rp41 in the microtiter wells. The reaction was stopped by addition of 100 ul of 1N H2SO4, and the plates were read on a Dynatech II microtiter plate reader.

| Substance | binding of [125I]peptide by 5-21-3 (immunoprecipitation), in words [2] | SPECIFIC PRECIPITATION (CPM) ([2]; 5-21-3 1.0 μg/ml final) | x-fold increase of specific over non-specific precipitation ([2]; 5-21-3 1.0 μg/ml final) | SPECIFIC PRECIPITATION (CPM) by 5-21-3 [2] | x-fold increase of specific over non-specific precipitation, 5-21-3 [2] | SPECIFIC PRECIPITATION (CPM) ([2]; 5-21-3 10.0 μg/ml final) | x-fold increase of specific over non-specific precipitation ([2]; 5-21-3 10.0 μg/ml final) | SPECIFIC PRECIPITATION (CPM) ([2]; 5-21-3 100.0 μg/ml final) | x-fold increase of specific over non-specific precipitation ([2]; 5-21-3 100.0 μg/ml final) | SPECIFIC PRECIPITATION (CPM) ([3]; 10-15-63 1.0 μg/ml final) | x-fold increase of specific over non-specific precipitation ([3]; 10-15-63 1.0 μg/ml final) | SPECIFIC PRECIPITATION (CPM) by 10-15-63 [3] | x-fold increase of specific over non-specific precipitation, 10-15-63 [3] | SPECIFIC PRECIPITATION (CPM) ([3]; 10-15-63 10.0 μg/ml final) | x-fold increase of specific over non-specific precipitation ([3]; 10-15-63 10.0 μg/ml final) | SPECIFIC PRECIPITATION (CPM) ([3]; 10-15-63 100.0 μg/ml final) | SPECIFIC PRECIPITATION (CPM) by RαP58-130 [4] | x-fold increase of specific over non-specific precipitation, RαP58-130 [4] | inhibition of 5-21-3 binding to rp41, in words [5] | Molar Ratio at 50% inhibition of 5-21-3 binding [5] | other results |
| --- | --- | --- | --- | --- | --- | --- | --- | --- | --- | --- | --- | --- | --- | --- | --- | --- | --- | --- | --- | --- | --- |
| NH2-Asp-Arg-Glu-Ile-Asn-Asn-Tyr-Thr-Ser-Leu-Ile-His-Ser-Leu-Ile-Glu-Glu -Ser-Gln-Asn-Gln-Gln-Glu-Lys-Asn-Glu-Gln-Glu-Leu-Leu-Glu-Leu-Asp-Lys-COOH (H-DREINNYTSLIHSLIEESQNQQEKNEQELLELDK-OH) [P121-154] | recognized by 5-21-3 | 0 CPM | (0) x-fold | 40,717 CPM | (31) x-fold | 1,113 CPM | (2.3) x-fold | 18,984 CPM | (13) x-fold | 0 CPM | (0) x-fold | 371 CPM | (1.3) x-fold | 0 CPM | (0) x-fold | 0 CPM | 310,419 CPM | (24) x-fold | potent inhibitor | 1,494 pmoles peptide/pmoles 5-21-3 | immuno-dot blot reactivity with 5-21-3 [1]: faint, diffuse reaction; x-fold increase of specific over non-specific precipitation ([3]; 10-15-63 100.0 μg/ml final): (0) x-fold; precipitation of [125I]peptide by rabbit anti-P58-130, in words [4]: strong precipitator; fold less active than P67-154 in binding inhibition [5]: 20 fold; fold restoration of binding inhibition activity relative to P131-154 [5]: 20-65 fold |
| YNYTSLIHSLIEESQNQQEKNEQELLELDKWANLWNWL [P126-162] | recognized by 5-21-3 | 0 CPM | (0) x-fold | 11,540 CPM | (3.4) x-fold | 295 CPM | (1.1) x-fold | 4,924 CPM | (1.6) x-fold | 0 CPM | (0) x-fold | 0 CPM | (<1) x-fold | 0 CPM | (0) x-fold | 0 CPM | 0 CPM | (<1) x-fold | roughly equivalent to that of P121-154 | 1,585 pmoles peptide/pmoles 5-21-3 | immuno-dot blot reactivity with 5-21-3 [1]: additional 5-21-3 reactivity was observed; x-fold increase of specific over non-specific precipitation ([3]; 10-15-63 100.0 μg/ml final): (0) x-fold |
| IHSLIEESQNQQEKNEQELLELDK [P131-154] | unable to bind | 0 CPM | (0) x-fold | 970 CPM | (1.1) x-fold | 0 CPM | (0) x-fold | 0 CPM | (0) x-fold | 0 CPM | (0) x-fold | 0 CPM | (<1) x-fold | 0 CPM | (0) x-fold | 112 CPM | 0 CPM | (<1) x-fold | could not be demonstrated | >50,000 pmoles peptide/pmoles 5-21-3 | 5-21-3 concentration required to demonstrate binding of the peptide ([2]; immunoprecipitation, Table 5): could not be demonstrated; x-fold increase of specific over non-specific precipitation ([3]; 10-15-63 100.0 μg/ml final): (1.1) x-fold |
| IHSLIEESQNQQEKNEQELLELDKWANLWNWLNITNWLWYIKLFI [P131-175] | Little or no binding activity |  |  | 317 CPM | (1.6) x-fold |  |  |  |  |  |  | 188 CPM | (1.4) x-fold |  |  |  | 0 CPM | (<1) x-fold | definite inhibitor | 18,815 pmoles peptide/pmoles 5-21-3 |  |
